# Source: patent US10406227B2, “Photoactivated molecules for light-induced modulation of the activity of electrically excitable cells and methods of using same” (University of Southern California, priority 2012, dated 2019)
# How the values were obtained:
# INS cells [1] = assay: Imaging RubpyC17 in live cells (membrane luminescence); type: cell-based, rat
# Description: Cells were imaged at 1-3 days after plating. The glass-bottomed chambers with adherent cells were washed twice with PBS and then filled with standard extracellular solution consisting of 140 mM NaCl, 2.8 mM KCl, 10 mM HEPES, 1 mM MgCl2, 2 mM CaCl2, and 10 mM glucose, pH adjusted to 7.2-7.4 and osmolarity adjusted to 290-310 mOsm. The chamber was then mounted on an Olympus IX70 inverted microscope stage for imaging, using a Cascade 512B EMCCD camera, operated by Metamorph software. Initial imaging was done with cells in extracellular solution without RubpyC17, first under brightfield to evaluate cell health and morphology, then under widefield argon ion laser illumination at 488 nm (Coherent, Innova 90-5, Santa Clara, Calif.), to evaluate autofluorescence. Next, the extracellular solution was removed and replaced with extracellular solution containing the RubpyC17 compound (10 μM in ≤0.01% DMSO, final concentrations). Cell images were then acquired with illumination at 488 nm (collected with a long-pass red emission filter). For electrophysiological experiments, RubpyC17 compound was added to the extracellular solution (2-10 μM in ≤0.01% DMSO, final concentrations as indicated) and cells were incubated for 1.5-45 min, as indicated, then washed with extracellular solution without RubpyC17. Some chromaffin cells were also exposed continuously to 490-900 nM RubpyC17-containing extracellular solution.
# Illustrated here are rat insulinoma INS cells (FIG. 1C, top), human embryonic kidney (HEK293T) cells (FIG. 1C, middle), and primary cultured mouse chromaffin cells (FIG. 1C, bottom). […] All cell types preserved morphology for at least 10 minutes. […] One embodiment of the possible light-induced electron transfer is depicted in FIG. 1D.
# INS cells [2] = assay: Whole cell patch clamp, current-clamp membrane potential under blue light; type: cell-based, rat; conditions: for light-induced increase in membrane potential (depolarization): 10 μM ~2 min preincubation, 488 nm
# Description: (§1) Membrane potential was monitored using whole cell patch clamp in current-clamp mode. Cultured cells (INS and HEK293) were plated on a glass-bottomed culture dishes 1-3 days prior to recording. Cells were incubated in standard extracellular solution with or without 10 μM RubpyC17 compound for approximately 1.5-2 minutes, then washed and incubated with standard extracellular solution without additional supplementation, or with 2-5 mM ascorbate, 100 μM sodium ferrocyanide, or 100-200 μM potassium ferricyanide, as indicated. The chamber was transferred to the microscope stage. Extracellular solution consisted of 140 mM NaCl, 2.8 mM KCl, 10 mM HEPES, 1 mM MgCl2, 2 mM CaCl2, 10 mM glucose, pH adjusted to 7.3, and osmolarity adjusted to 300-310. Conventional whole-cell patch clamp recordings were performed with an EPC-9 amplifier and Pulse software (HEKA Electronics). Pipette electrodes of 1.8-3.5 Mohm were fire polished before use. Intracellular solution consisted of: 145 mM KCl, 10 mM NaCl, 1 mM MgCl2, 1 mM EGTA, 2 mM ATP, 0.3 mM GTP and 10 mM HEPES, pH adjusted to 7.3 and osmolarity adjusted to 290-300 mOsm. To monitor changes in membrane voltage/potential, cells were patch clamped in current-clamp mode. Access resistances were in the range of 3-8 Mohm. Using Pulse, membrane potentials were recorded before, during and after illumination by the argon ion laser at 488 nm with an irradiance value of 0.458 mE s^−1 m^−2 or by a xenon lamp source through a 470/40 nm bandpass excitation filter with an irradiance value of 0.480 mE s^−1 m^−2. […]
# (§2) Initial attempts were tied to INS and HEK cells, both cells that are not excitable under normal conditions (INS cells were maintained in low glucose <3 mM to prevent action potentials). […] To monitor the plasma membrane potential, the cells were patch-clamped in whole-cell configuration in current-clamp mode and membrane voltages were recorded while illuminating the cell at 488 nm (0.46-0.48 mE s^−1 m^−2), though other wavelengths are useful, depending on the embodiment.
# HEK293T cells [3] = assay: as above; type: cell-based, human
# Description: as §1, §2
# HEK293T cells [4] = assay: Voltage-clamp membrane current during illumination; type: cell-based, human; conditions: voltage-clamp at approximately −80 mV
# Description: To examine whether light-activated RubpyC17 can directly interact and open or block endogenous ion channels, HEK293T cells were preincubated with RubpyC17, and patch-clamped in a voltage-clamp configuration. Voltage-clamp configuration allowed the cells to be clamped at a potential where most voltage-gated ion channels are closed (approximately −80 mV). […] The current-voltage relationship (FIGS. 5C, D) as well as the steady-state voltage-dependent activation curves of RubpyC17-treated chromaffin cells in voltage-clamp mode before and during light illumination (FIG. 5E).
# mouse chromaffin cells = assay: Carbon fiber amperometry of light-triggered secretion; type: cell-based
# Description: Carbon fiber electrodes were prepared using established methodology and coupled to an EPC10 amplifier. A+800 mV constant voltage was applied to the electrode relative to the Ag/AgCl bath electrode. The amperometry recordings were sampled at 4 kHz using Pulsemaster (HEKA). Extracellular composition consisted of 120 mM NaCl, 20 mM KCl, 10 mM HEPES, 1 mM MgCl2, 2 mM CaCl2, 10 mM glucose, pH adjusted to 7.2-7.4, and osmolarity adjusted to 290-300. Light stimulation in the blue spectrum originated from a xenon lamp source through a 470/40 nm bandpass excitation filter. The duration of illumination varied and is indicated by bars on figures.
# Action potential firing triggers secretion of norepinephrine and epinephrine from adrenal chromaffin cells, which can be readily detected by the technique of carbon-fiber amperometry, thus serving as a surrogate to detect action potential firing. […] Out of 18 RubpyC17-loaded cells tested, 15 cells (83%) experienced increased secretion by at least 100-fold during light illumination. Unlike the changes in light-induced depolarization, light-induced changes in secretion appeared to be more transient. One possible explanation for this is that at any moment in time, there are only a small number of release-competent vesicles—the so-called readily releasable pool of vesicles—and maintained stimulation causes rapid depletion of the readily releasable pool of vesicles in the initial phase of stimulation.
# RCS rats = assay: Retina histology / pathology after intravitreal injection; type: in vivo, rat
# Excerpt: This finding was reproduced in 3 of 3 RCS rats injected with Rubpy-C17, and in 2 of 2 control (sham injection) RCS rats.
substance,measurement,setting,value
[Ru(bpy)2(bpy-C17)](PF6)2 [RubpyC17],time cell morphology preserved,INS cells [1]; 10 μM RubpyC17,at least 10 minutes
same,incorporation into plasma membrane (membrane-localized luminescence),"INS cells [1]; 10 μM in bath, 488 nm excitation",rapidly and stably incorporates into mammalian cell membranes
same,membrane luminescence after removal from bath solution,INS cells [1]; 10 minutes after RubpyC17 removal,still observed
same,light-induced increase in membrane potential (depolarization),INS cells [2]; 2 mM ascorbate,15.9 ± 4.6 mV
same,light-induced increase in membrane potential (depolarization),INS cells [2]; absence of ascorbate,9.8 ± 4.5 mV
same,light-triggered depolarization with non-permeating ions,"INS cells [2]; NMDG for sodium, cesium for potassium, ascorbate present",still persisted
same,light-induced depolarization,"HEK293T cells [3]; 10 μM ~2 min preincubation, 2 mM ascorbate, 488 nm",14.6 ± 2.4 mV
same,light-induced hyperpolarization,HEK293T cells [3]; 100 uM ferricyanide in extracellular solution,20.9 ± 4.9 mV
same,light-induced depolarization with ferrocyanide as reductant,HEK293T cells [3]; 0.1 mM ferrocyanide,light-induced depolarization was also observed
same,light-induced changes in membrane current,HEK293T cells [4],did not exhibit light-induced changes in membrane current
same,light-triggered secretion (amperometric spikes),"mouse chromaffin cells; 2 μM RubpyC17, 488 nm",exhibited numerous amperometric current spikes
same,cells with increased secretion during light illumination,mouse chromaffin cells; 15 of 18 RubpyC17-loaded cells,83%
same,increase in secretion during light illumination,mouse chromaffin cells; responding cells,at least 100 fold
same,histology of the retina,"RCS rats; 3 days after injection, preliminary",no evidence of retinal cell death or white blood cell infiltrates
same,initial pathology studies,RCS rats; eyes injected with Rubpy-C17,absence of obvious signs of deleterious effects
